Molecular target: human TMEM16A (TMEM16Aabc variant) (Homo sapiens, UniProt Q5XXA6, DEL476-501, form not given)
Assay: Automated whole-cell patch clamp (Qpatch) TMEM16A potentiator assay in FRT cells stably expressing human TMEM16A
Format: cell-based
Conditions: for % Potentiation @ 3.33 μM Avg: 3.33 μM solution of test compound, percentage increase of baseline TMEM16A current; for EC50: calculated EC50, Qpatch TMEM16A current at +70 mV
In short: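 Potentiation was read as the rise in peak +70 mV current over baseline (%), from cumulative 5-min additions of compound. Recordings used whole-cell automated patch of FRT cells stably carrying human TMEM16Aabc, with pipette Ca2+ buffered to give ~20% maximal current. EC50 and efficacy came from concentration-response fits.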

Sequence of human TMEM16A (TMEM16Aabc variant) (Q5XXA6 with tags, fused parts or gaps DEL476-501): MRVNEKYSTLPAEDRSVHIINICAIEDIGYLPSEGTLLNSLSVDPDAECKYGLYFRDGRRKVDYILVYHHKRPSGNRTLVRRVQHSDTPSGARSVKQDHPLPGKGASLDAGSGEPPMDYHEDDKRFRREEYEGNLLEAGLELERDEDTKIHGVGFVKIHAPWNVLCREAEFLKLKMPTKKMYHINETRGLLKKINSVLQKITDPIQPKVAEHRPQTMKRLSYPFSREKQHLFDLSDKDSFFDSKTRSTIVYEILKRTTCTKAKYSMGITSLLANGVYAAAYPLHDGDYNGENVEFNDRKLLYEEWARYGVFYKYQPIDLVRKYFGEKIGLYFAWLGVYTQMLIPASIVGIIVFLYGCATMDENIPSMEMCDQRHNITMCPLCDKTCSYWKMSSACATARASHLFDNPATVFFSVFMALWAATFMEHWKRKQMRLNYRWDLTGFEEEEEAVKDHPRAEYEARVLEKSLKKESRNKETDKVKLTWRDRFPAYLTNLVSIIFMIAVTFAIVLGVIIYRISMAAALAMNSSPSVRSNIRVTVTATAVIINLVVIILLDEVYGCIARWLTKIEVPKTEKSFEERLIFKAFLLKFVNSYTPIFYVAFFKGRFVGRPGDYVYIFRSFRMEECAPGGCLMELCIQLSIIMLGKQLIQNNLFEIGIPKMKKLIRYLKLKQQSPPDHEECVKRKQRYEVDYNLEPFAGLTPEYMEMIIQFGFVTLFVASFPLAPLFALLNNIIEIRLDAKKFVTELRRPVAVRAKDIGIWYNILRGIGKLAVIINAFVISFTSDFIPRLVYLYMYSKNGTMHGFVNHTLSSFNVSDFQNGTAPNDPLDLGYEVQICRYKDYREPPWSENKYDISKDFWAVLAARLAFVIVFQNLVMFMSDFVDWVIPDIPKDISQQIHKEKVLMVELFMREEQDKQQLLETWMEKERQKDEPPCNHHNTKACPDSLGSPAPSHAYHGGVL

Structure (SMILES) | % Potentiation @ 3.33 μM Avg [%] | EC50 [nM]
CC(C)(C)NC(=O)c1cc(NC(=O)Cc2ccc3ccccc3c2)ccn1 [Example 5.24, N-tert-Butyl-4-[[2-(2-naphthyl)acetyl]amino]pyridine-2-carboxamide] | 189 | 140
N#CC1(NC(=O)c2cc(NC(=O)Cc3cc(Cl)ccc3O)ccn2)CCC1 [Example 7.16, 4-[[2-(5-Chloro-2-hydroxy-phenyl)acetyl]amino]-N-(1-cyanocyclobutyl)pyridine-2-carboxamide] | 354 | 130
O=C(Cc1cc(Cl)ccc1O)Nc1ccnc(C(=O)N[C@H]2CCCC[C@@H]2O)c1 [Example 31.3, 4-[2-(5-Chloro-2-hydroxyphenyl)acetamido]-N-[(1s,2s)-2-hydroxycyclohexyl] pyridine-2-carboxamide] | 205 | 210
CC(C)(C)NC(=O)c1cc(NC(=O)Nc2ccccc2O)ccn1 [Example 65, N-tert-Butyl-4-[(2-hydroxyphenyl)carbamoylamino]pyridine-2-carboxamide] | 55 | 
CC(C)(C#N)NC(=O)c1cc(NC(=O)Cc2ccc(C(C)(C)C)c(O)c2)ccn1 [Example 93.4, 4-[[2-(4-tert-Butyl-3-hydroxy-phenyl)acetyl]amino]-N-(1-cyano-1-methyl-ethyl)pyridine-2-carboxamide] | 476 | 70
N#CC1(NC(=O)c2cc(NC(=O)Cc3ccc(Cl)c(O)c3)ccn2)CCOCC1 [Example 92, 4-[[2-(4-Chloro-3-hydroxy-phenyl)acetyl]amino]-N-(4-cyanotetrahydropyran-4-yl)pyridine-2-carboxamide] | 133 | 110
N#CC1(NC(=O)c2cc(NC(=O)Cc3ccc4ncccc4c3)ccn2)CCC1 [Example 23.11, N-(1-Cyanocyclobutyl)-4-[[2-(6-quinolyl)acetyl]amino]pyridine-2-carboxamide] | 101 | 
CC(C)(C)NC(=O)CC(C)(C)NC(=O)c1cc(NC(=O)Cc2cc(Cl)ccc2O)ccn1 [Example 49, N-[3-(tert-Butylamino)-1,1-dimethyl-3-oxo-propyl]-4-[[2-(5-chloro-2-hydroxy-phenyl)acetyl]amino]pyridine-2-carboxamide] | 226 | 680
C#CC(C)(C)NC(=O)c1cc(NC(=O)Cc2ccccc2F)ccn1 [Example 60.2, N-(1,1-Dimethylprop-2-ynyl)-4-[[2-(2-fluorophenyl)acetyl]amino]pyridine-2-carboxamide] | 169 | 200
CC(C)(C)NC(=O)c1cc(NC(=O)Cc2cc(Cl)ccc2O)ccc1F [Example 17, N-tert-Butyl-5-[[2-(5-chloro-2-hydroxy-phenyl)acetyl]amino]-2-fluoro-benzamide] | 173 | 1490
Cc1cc(C(=O)Nc2ccnc(C(=O)NC(C)(C)C#N)c2)c(C)n1Cc1cccs1 [Example 83.26, N-(1-Cyano-1-methyl-ethyl)-4-[[2,5-dimethyl-1-(2-thienylmethyl)pyrrole-3-carbonyl]amino]pyridine-2-carboxamide] | 95 | 
CC(C)(CCNC(=O)C(C)(C)C)NC(=O)c1cc(NC(=O)Cc2cc(Cl)ccc2O)ccn1 [Example 45, 4-[[2-(5-Chloro-2-hydroxy-phenyl)acetyl]amino]-N-[3-(2,2-dimethylpropanoylamino)-1,1-dimethyl-propyl]pyridine-2-carboxamide] | 151 | 
CC(C)(C)NC(=O)c1cc(NC(=O)Cc2ccccc2C(F)F)ccn1 [Example 23.5, N-tert-Butyl-4-[[2-[2-(difluoromethyl)phenyl]acetyl]amino]pyridine-2-carboxamide] | 110 | 
O=C(Cc1cc(Cl)ccc1O)Nc1ccnc(C(=O)N[C@H]2CC[C@@H](O)C2)c1 [Example 35.3, 4-[[2-(5-Chloro-2-hydroxy-phenyl)acetyl]amino]-N-[(1s,3r)-3-hydroxycyclopentyl]pyridine-2-carboxamide] | 144 | 
